# Source: the supplement of paper PMC7840683
# ± gives the standard deviation of the averaged measurements.
# Test system: HepaRG
# Assay: LDH release cytotoxicity, % of total lysis control; higher = more cytotoxic
# Conditions: 48 h
# In short: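 Percent cytotoxicity was scaled between on-plate vehicle and total lysis controls, then averaged over duplicate wells. The cells were single-lot HepaRG on collagen I-coated 96-well plates, exposed for 48 h to eight-point half-log test chemical series topping at 100 µM in serum-free induction medium with 0.5% DMSO. Total lysis wells got 0.1% Triton X, and LDH in 50 µL spent medium was read as resorufin fluorescence (CytoTox-ONE, Tecan Safire).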
structure (smiles),measurement,setting,value
C=CN1CCCC1=O [N-Vinyl-2-pyrrolidone],LDH release cytotoxicity,0.01581 µM,-1.31 ± 0.34%
same,LDH release cytotoxicity,0.05 µM,-2.25 ± 0.44%
same,LDH release cytotoxicity,0.1581139 µM,-2.68 ± 0.3%
same,LDH release cytotoxicity,0.5 µM,-2.71 ± 0.27%
same,LDH release cytotoxicity,1.5811388 µM,-2.96 ± 0.54%
same,LDH release cytotoxicity,5 µM,-2.54 ± 0.67%
same,LDH release cytotoxicity,15.8114 µM,-1.96 ± 0.93%
same,LDH release cytotoxicity,50 µM,-0.521 ± 0.9%
COP(=O)(OC)OC(Br)C(Cl)(Cl)Br (centres undefined) [Naled],LDH release cytotoxicity,0.03162 µM,-2.18 ± 0.54%
same,LDH release cytotoxicity,0.1 µM,-1.58 ± 0.07%
same,LDH release cytotoxicity,0.3162278 µM,-1.53 ± 0.67%
same,LDH release cytotoxicity,1 µM,-2.25 ± 0.69%
same,LDH release cytotoxicity,3.16228 µM,-0.95 ± 0.64%
same,LDH release cytotoxicity,10 µM,-1.19 ± 0.38%
same,LDH release cytotoxicity,31.6228 µM,-0.943 ± 0.2%
same,LDH release cytotoxicity,100 µM,-0.896 ± 0.77%
c1ccc2ccccc2c1 [Naphthalene],LDH release cytotoxicity,0.03162 µM,-0.307 ± 0.6%
same,LDH release cytotoxicity,0.1 µM,-1.13 ± 0.077%
same,LDH release cytotoxicity,0.3162278 µM,-0.248 ± 0.12%
same,LDH release cytotoxicity,1 µM,-0.532 ± 0.32%
same,LDH release cytotoxicity,3.16228 µM,0.237 ± 0.93%
same,LDH release cytotoxicity,10 µM,1.23 ± 1%
same,LDH release cytotoxicity,31.6228 µM,0.531 ± 0.68%
same,LDH release cytotoxicity,100 µM,2.74 ± 0.9%
CCN(CC)C(=O)C(C)Oc1cccc2ccccc12 (centres undefined) [Napropamide],LDH release cytotoxicity,0.03162 µM,-0.242 ± 0.62%
same,LDH release cytotoxicity,0.1 µM,-0.853 ± 0.36%
same,LDH release cytotoxicity,0.3162278 µM,-1.37 ± 0.22%
same,LDH release cytotoxicity,1 µM,-0.226 ± 0.36%
same,LDH release cytotoxicity,3.16228 µM,-1.59 ± 1.4%
same,LDH release cytotoxicity,10 µM,-0.144 ± 0.53%
same,LDH release cytotoxicity,31.6228 µM,0.0468 ± 0.54%
same,LDH release cytotoxicity,100 µM,1.05 ± 1.2%
COc1ccc(S(=O)(=O)N2C(=O)C(c3ccccc3OC)(N3CC(O)CC3C(=O)N(C)C)c3cc(Cl)ccc32)c(OC)c1 (centres undefined) [Nelivaptan],LDH release cytotoxicity,0.03162 µM,-0.817 ± 0.14%
same,LDH release cytotoxicity,0.1 µM,0.214 ± 1.6%
same,LDH release cytotoxicity,0.3162278 µM,0.146 ± 0.67%
same,LDH release cytotoxicity,1 µM,-0.447 ± 0.43%
same,LDH release cytotoxicity,3.16228 µM,-0.164 ± 0.61%
same,LDH release cytotoxicity,10 µM,0.998 ± 1.2%
same,LDH release cytotoxicity,31.6228 µM,-0.141 ± 0.64%
same,LDH release cytotoxicity,100 µM,-0.056 ± 0.061%
CN1CCCC1c1cccnc1 (centres undefined) [Nicotine],LDH release cytotoxicity,0.031623 µM,0.0561 ± 0.16%
same,LDH release cytotoxicity,0.1 µM,-2.6 ± 0.49%
same,LDH release cytotoxicity,0.316228 µM,-2.47 ± 0.26%
same,LDH release cytotoxicity,1 µM,-2.55 ± 0.14%
same,LDH release cytotoxicity,3.16228 µM,-2.4 ± 0.23%
same,LDH release cytotoxicity,10 µM,-2.95 ± 0.78%
same,LDH release cytotoxicity,31.6228 µM,-1.31 ± 0.45%
same,LDH release cytotoxicity,100 µM,0.154 ± 0.86%
O=C(O)c1cccnc1 [Nicotinic acid],LDH release cytotoxicity,0.0327296 µM,-1.39 ± 0.94%
same,LDH release cytotoxicity,0.1035 µM,-1.35 ± 0.33%
same,LDH release cytotoxicity,0.327296 µM,-1.95 ± 0.85%
same,LDH release cytotoxicity,1.035 µM,-1.67 ± 0.46%
same,LDH release cytotoxicity,3.27296 µM,-1.83 ± 0.44%
same,LDH release cytotoxicity,10.35 µM,-0.596 ± 0.74%
same,LDH release cytotoxicity,32.729574 µM,-0.819 ± 0.39%
same,LDH release cytotoxicity,103.5 µM,0.214 ± 0.71%
Clc1cccc(C(Cl)(Cl)Cl)n1 [Nitrapyrin],LDH release cytotoxicity,0.031623 µM,-0.0337 ± 1.6%
same,LDH release cytotoxicity,0.1 µM,-0.859 ± 0.33%
same,LDH release cytotoxicity,0.316228 µM,-1.7 ± 1.4%
same,LDH release cytotoxicity,1 µM,-2.43 ± 0.29%
same,LDH release cytotoxicity,3.16228 µM,-2.02 ± 0.78%
same,LDH release cytotoxicity,10 µM,-1.29 ± 0.76%
same,LDH release cytotoxicity,31.6228 µM,-1.63 ± 1.3%
same,LDH release cytotoxicity,100 µM,1.2 ± 0.065%
O=C(O)CN(CC(=O)O)CC(=O)O [Nitrilotriacetic acid],LDH release cytotoxicity,0.03162 µM,-0.992 ± 1.1%
same,LDH release cytotoxicity,0.1 µM,-2.54 ± 0.17%
same,LDH release cytotoxicity,0.3162278 µM,-2.46 ± 0.55%
same,LDH release cytotoxicity,1 µM,-2.18 ± 1.1%
same,LDH release cytotoxicity,3.16228 µM,-1.64 ± 0.13%
same,LDH release cytotoxicity,10 µM,-2.38 ± 0.72%
same,LDH release cytotoxicity,31.6228 µM,-1.51 ± 0.34%
same,LDH release cytotoxicity,100 µM,-0.286 ± 0.059%
O=[N+]([O-])c1ccccc1 [Nitrobenzene],LDH release cytotoxicity,0.03162 µM,-0.035 ± 0.65%
same,LDH release cytotoxicity,0.1 µM,-0.746 ± 0.34%
same,LDH release cytotoxicity,0.3162278 µM,-0.739 ± 0.36%
same,LDH release cytotoxicity,1 µM,-0.928 ± 0.55%
same,LDH release cytotoxicity,3.16228 µM,-1.24 ± 0.27%
same,LDH release cytotoxicity,10 µM,-0.372 ± 0.35%
same,LDH release cytotoxicity,31.6228 µM,-0.298 ± 1.3%
same,LDH release cytotoxicity,100 µM,1.13 ± 0.81%
O=[N+]([O-])c1ccc(Oc2ccc(Cl)cc2Cl)cc1 [Nitrofen],LDH release cytotoxicity,0.03162 µM,0.322 ± 3%
same,LDH release cytotoxicity,0.1 µM,-0.97 ± 0.56%
same,LDH release cytotoxicity,0.3162278 µM,-0.303 ± 0.48%
same,LDH release cytotoxicity,1 µM,-0.821 ± 0.57%
same,LDH release cytotoxicity,3.16228 µM,-0.947 ± 1%
same,LDH release cytotoxicity,10 µM,0.734 ± 0.22%
same,LDH release cytotoxicity,31.6228 µM,0.996 ± 0.67%
same,LDH release cytotoxicity,100 µM,3.046 ± 0.0066%
O=C1CN(N=Cc2ccc([N+](=O)[O-])o2)C(=O)N1 [Nitrofurantoin],LDH release cytotoxicity,0.03162 µM,-0.977 ± 0.36%
same,LDH release cytotoxicity,0.1 µM,-1.36 ± 0.74%
same,LDH release cytotoxicity,0.3162278 µM,-1.01 ± 0.51%
same,LDH release cytotoxicity,1 µM,-0.456 ± 1.2%
same,LDH release cytotoxicity,3.16228 µM,-1.09 ± 0.89%
same,LDH release cytotoxicity,10 µM,-0.861 ± 0.77%
same,LDH release cytotoxicity,31.6228 µM,-0.189 ± 0.6%
same,LDH release cytotoxicity,100 µM,2.15 ± 0.92%
NC(=O)N=NCc1ccc([N+](=O)[O-])o1 [Nitrofurazone],LDH release cytotoxicity,0.03162 µM,-0.299 ± 0.59%
same,LDH release cytotoxicity,0.1 µM,-1.51 ± 0.4%
same,LDH release cytotoxicity,0.3162278 µM,-1.48 ± 0.51%
same,LDH release cytotoxicity,1 µM,-1.87 ± 0.52%
same,LDH release cytotoxicity,3.16228 µM,-1.76 ± 0.92%
same,LDH release cytotoxicity,10 µM,-0.788 ± 0.29%
same,LDH release cytotoxicity,31.6228 µM,-0.997 ± 0.33%
same,LDH release cytotoxicity,100 µM,0.128 ± 0.43%
CCCCCCCCC(=O)O [Nonanoic acid],LDH release cytotoxicity,0.03162 µM,-1.22 ± 1.1%
same,LDH release cytotoxicity,0.1 µM,-1.24 ± 0.71%
same,LDH release cytotoxicity,0.3162278 µM,-0.597 ± 0.11%
same,LDH release cytotoxicity,1 µM,-1.56 ± 0.047%
same,LDH release cytotoxicity,3.16228 µM,-2.05 ± 0.21%
same,LDH release cytotoxicity,10 µM,-1.39 ± 0.62%
same,LDH release cytotoxicity,31.6228 µM,-1.11 ± 0.22%
same,LDH release cytotoxicity,100 µM,3.09 ± 0.27%
C#CC1(O)CCC2C3CCC4=CC(=O)CCC4C3CCC21C (centres undefined) [Norethindrone],LDH release cytotoxicity,0.03162 µM,-0.43 ± 0.47%
same,LDH release cytotoxicity,0.1 µM,0.00115 ± 0.14%
same,LDH release cytotoxicity,0.3162278 µM,-0.373 ± 0.45%
same,LDH release cytotoxicity,1 µM,-0.047 ± 0.53%
same,LDH release cytotoxicity,3.16228 µM,0.727 ± 1%
same,LDH release cytotoxicity,10 µM,0.906 ± 1.7%
same,LDH release cytotoxicity,31.6228 µM,2.7 ± 1.3%
same,LDH release cytotoxicity,100 µM,2.69 ± 0.34%
CN=C1C=NN(c2cccc(C(F)(F)F)c2)C(=O)C1Cl (centres undefined) [Norflurazon],LDH release cytotoxicity,0.03162 µM,-0.275 ± 1.1%
same,LDH release cytotoxicity,0.1 µM,-1.08 ± 0.48%
same,LDH release cytotoxicity,0.3162278 µM,-0.0751 ± 2%
same,LDH release cytotoxicity,1 µM,0.0859 ± 2.5%
same,LDH release cytotoxicity,3.16228 µM,-1.2 ± 0.27%
same,LDH release cytotoxicity,10 µM,-0.411 ± 0.49%
same,LDH release cytotoxicity,31.6228 µM,0.0481 ± 1.5%
same,LDH release cytotoxicity,100 µM,1.81 ± 1.8%
O=C(NC(=O)c1c(F)cccc1F)Nc1ccc(OC(F)(F)C(F)OC(F)(F)F)c(Cl)c1 (centres undefined) [Novaluron],LDH release cytotoxicity,0.031623 µM,-0.704 ± 1.1%
same,LDH release cytotoxicity,0.1 µM,-3.48 ± 0.26%
same,LDH release cytotoxicity,0.316228 µM,-3.95 ± 0.86%
same,LDH release cytotoxicity,1 µM,-4.4 ± 1.3%
same,LDH release cytotoxicity,3.16228 µM,-3.9 ± 0.22%
same,LDH release cytotoxicity,10 µM,-4.16 ± 0.54%
same,LDH release cytotoxicity,31.6228 µM,-1.88 ± 0.94%
same,LDH release cytotoxicity,100 µM,4.68 ± 1.6%
CCCCCCCCOc1ccc(C(=O)c2ccccc2)c(O)c1 [Octabenzone],LDH release cytotoxicity,0.03162 µM,-0.784 ± 0.38%
same,LDH release cytotoxicity,0.1 µM,-1.09 ± 0.34%
same,LDH release cytotoxicity,0.3162278 µM,-0.164 ± 0.29%
same,LDH release cytotoxicity,1 µM,0.7228 ± 0.0064%
same,LDH release cytotoxicity,3.16228 µM,0.706 ± 0.87%
same,LDH release cytotoxicity,10 µM,0.678 ± 2.1%
same,LDH release cytotoxicity,31.6228 µM,1.22 ± 0.62%
same,LDH release cytotoxicity,100 µM,1.8 ± 0.62%
